# Test results as given in US20250154105A1, “POLYCYCLIC COMPOUND AND USE THEREOF” (TYK MEDICINES, INC., priority 2021, published 2025).
# Assays:
# [1] = Rat pharmacokinetic experiment; assay type: in vivo; details: po, male SD rats, gavage (p.o.), 10 mg/kg, plasma
# Excerpt: TEST EXAMPLE 3 PHARMACOKINETIC EXPERIMENT OF COMPOUNDS
# Pharmacokinetic test of compounds T-32/T-105/T-253/T-272/T-273/T-277 of the present invention.
# Experimental Protocol of Rat Pharmacokinetics
# • (1) Required animals: healthy adult SD rats, male, 3 rats, 6-8 weeks old; weighing 200-300 g. • (2) Required equipments: analytical balance, animal weight scale, magnetic stirrer, refrigerated centrifuge, single-channel manual pipettor, etc. • (3) Required reagents: EDTA-Na2 anticoagulant, etc. 11.2 g of EDTA-Na2 was weighed and placed in a reagent flask, 100 mL of normal saline was added, and the flask was shook to completely dissolve it. After the preparation was completed, it was divided into 1.5 mL centrifuge tubes with 20 uL each for whole blood sample collection. • (3) About 10 mg of the sample to be tested was accurately weighed, 5% DMSO after conversion was added to dissolve, then 30% PEG400 and 65% (10% Hp-β-CD in PBS) were added for sonication, and vortex-mixed evenly to obtain a solution with a concentration of 1 mg/mL which is freshly prepared before use. • (4) 0.1 mL of sample was taken into a 1.5 mL centrifuge tube and stored at −80° C. for concentration analysis of drug administration solution. • (5) Animals were kept in rat cages, and fasted (not less than 10 h) from the day before the test(but water was allowed). The animals were separately weighed and marked at the tail on the day of the test. Blank blood was collected before administration. The blood was collected from tail vein. • (6) Route of administration: gavage (p.o.); dosage: 10 mg/kg; administration volume: 10 mL/kg. • (7) Operation process: Use the left hand with anti-bite gloves to catch the rat, make it stand upright, stretch the 16th gastric lavage needle from the throat of the mouth, insert the needle when feeling out no obvious resistance, and then inject the drug into the stomach. • (8) 0.2 ml of whole blood was collected from the tested animals and added into EDTA-Na2 anticoagulant tubes before administration and 0.5 h, 1 h, 2 h, 4 h, 6 h, 8 h, 12 h and 24 h after administration respectively. The tubes were reversed up and down for 3-4 times and mixed evenly, centrifuged at 4° C. at 10000 g for 5 min to separate plasma, and stored at −80° C. for testing. The blood was collected from tail vein. • (9) LC-MS/MS method was established to determine the concentration of original drug in plasma, the blood drug concentration-time curve was drawn, and the main pharmacokinetic parameters were calculated by non-compartment model. • (10) Pharmacokinetic parameters of T-32/T-105/T-253/T-272/T-273/T-277 were shown below in Table 2.
# YAP-TEAD = YAP-TEAD inhibitor activity by Nano luciferase method (8xGTiiC-nLuc reporter in 293T cells); assay type: cell-based; details: Homo sapiens, HEK-293T, 48 hours incubation, read-out: Nano-luciferase detection (IC50)
# Summary of the method: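 IC50 derived from nLuc reporter signal normalised to 0 nM wells, after 48 h, 37 °C compound exposure (1:3.16 series, highest 10,000 nM). Cells: 293T transfected with 8xGTiiC-nLuc/CMV-fLuc plasmid, plated at 2000 per well.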
# [2] = system: human pleural mesothelioma cells NCI-H226; assay: Cell anti-proliferation experiment (CCK8), NCI-H226; assay type: cell-based
# Summary of the method: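 Viability was measured by CCK-8 (3 h, A450) after 3-day treatment with 0.15–333.33 nM compound in 0.1% DMSO medium. Curve-fitted IC50 was based on viability normalised to no-drug and cell-free controls.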
Compound,IC50 (YAP-TEAD),IC50 [2],other results
"CC(C)NC(=O)c1ccc2c(-c3ccc(C(F)(F)F)cc3)cccc2c1 [Control compound 1, reference compound]",–,–,AUC(0-t) [1]: 2180 ng·h/mL; Cmax [1]: 584 ng/mL; MRT last [1]: 2.92 h; Tmax [1]: 2 h
C[C@H](NC(=O)c1cnc2c(c1)c1cc(C#N)ccc1c(=O)n2-c1ccc(C(F)(F)F)cc1)c1ccccn1 [Example T-410],≤ 1 µM,≤ 1 µM,–
C[C@H](NC(=O)c1ccc2c(c1)c1c(cnn1CC(F)(F)F)c(=O)n2-c1ccc(C(F)(F)F)cc1)c1ccccn1 [Example T-411],≤ 1 µM,1 to 5 µM,–
C=CC(=O)Nc1ccc2c(c1)cc(C)c(=O)n2-c1ccc(C(F)(F)F)cc1 [Example T-412],≤ 1 µM,≤ 1 µM,–
Cc1cc(=O)n(-c2ccc(C(F)(F)F)cc2)c2ccc(C(=O)N[C@@H](C)c3cccc(N)n3)cc12 [Example T-413],≤ 1 µM,≤ 1 µM,–
Cc1cc2cc(C(=O)N[C@@H](C)c3cccc(N)n3)ccc2n(-c2ccc(C(F)(F)F)cc2)c1=O [Example T-414],≤ 1 µM,≤ 1 µM,–
Cc1cc2cc(C(=O)N[C@@H](C)c3ccccn3)ccc2n(-c2ccc(C(F)(F)F)cc2)c1=O [Example T-415],≤ 1 µM,≤ 1 µM,–
C[C@H](NC(=O)c1ccc2c(c1)cc(C(F)F)c(=O)n2-c1ccc(C(F)(F)F)cc1)c1cccc(N)n1 [Example T-417],≤ 1 µM,≤ 1 µM,–
C=CC(=O)Nc1ccc2c(c1)c1nscc1c(=O)n2-c1ccc(C(F)(F)F)cc1 [Example T-418],≤ 1 µM,≤ 1 µM,–
C[C@H](NC(=O)c1ccc2c(c1)c1ncccc1c(=O)n2-c1ccc(C(F)(F)F)cc1)c1cccc(N)n1 [Example T-419],≤ 1 µM,≤ 1 µM,–
CNS(=O)(=O)c1ccc2c(c1)cc(C)c(=O)n2-c1ccc(C(F)(F)F)cc1 [Example T-421],≤ 1 µM,≤ 1 µM,–
C[C@H](NC(=O)c1ccc2c(ccc(=O)n2-c2ccc(C(F)(F)F)cc2)c1)c1cccc(N)n1 [Example T-423],≤ 1 µM,≤ 1 µM,–
C=CC(=O)Nc1ccc2c(c1)c1c(c(=O)n2-c2ccc(C(F)(F)F)cc2)CCC1 [Example T-424],≤ 1 µM,≤ 1 µM,–
C[C@H](NC(=O)c1ccc2c(c1)c1c(c(=O)n2-c2ccc(C(F)(F)F)cc2)CCC1)c1cccc(N)n1 [Example T-425],≤ 1 µM,≤ 1 µM,–
COC[C@H](C)NC(=O)c1ccc2c(c1)C1=C(CCC1)CN2c1ccc(C(F)(F)F)cc1 [Example T-426],≤ 1 µM,≤ 1 µM,–
CNS(=O)(=O)c1ccc2c(c1)c1c(c(=O)n2-c2ccc(C(F)(F)F)cc2)CCC1 [Example T-427],≤ 1 µM,≤ 1 µM,–
C[C@H](NC(=O)c1ccc2c(c1)c1c(c(=O)n2-c2ccc(C(F)(F)F)cc2)CCCC1)c1cccc(N)n1 [Example T-428],≤ 1 µM,≤ 1 µM,–
C[C@H](NC(=O)c1ccc2c(c1)c1sccc1c(=O)n2-c1ccc(C(F)(F)F)cc1)c1cccc(N)n1 [Example T-429],≤ 1 µM,≤ 1 µM,–
CNc1cccc([C@H](C)NC(=O)c2ccc3c(ccc(=O)n3-c3ccc(C(F)(F)F)cc3)c2)n1 [Example T-430],≤ 1 µM,≤ 1 µM,–

Compound,IC50 (YAP-TEAD),IC50 [2],other results
Cc1c(C)c2cc(C(=O)N[C@@H](C)c3cccc(N)n3)ccc2n(-c2ccc(C(F)(F)F)cc2)c1=O [Example T-431],≤ 1 µM,≤ 1 µM,–
CS(=O)(=O)Nc1ccc2c(c1)c1c(c(=O)n2-c2ccc(C(F)(F)F)cc2)CCC1 [Example T-432],≤ 1 µM,≤ 1 µM,–
C[C@H](NC(=O)c1ccc2c(c1)c1cnccc1c(=O)n2-c1ccc(C(F)(F)F)cc1)c1cccc(N)n1 [Example T-434],≤ 1 µM,≤ 1 µM,–
C[C@H](NC(=O)c1ccc2c(c1)c1nscc1c(=O)n2-c1ccc(C(F)(F)F)cc1)c1cccc(N)n1 [Example T-435],≤ 1 µM,≤ 1 µM,–
Cc1c(C)c2cc(C(=O)N[C@@H](C)c3ccccn3)ccc2n(-c2ccc(C(F)(F)F)cc2)c1=O [Example T-436],≤ 1 µM,≤ 1 µM,–
C[C@H](NC(=O)c1cnc2c(c1)c1ccccc1c(=O)n2-c1ccc(C(F)(F)F)cc1)c1cccc(N)n1 [Example T-437],≤ 1 µM,≤ 1 µM,–
C[C@H](NC(=O)c1cnc2c(c1)c1csnc1c(=O)n2-c1ccc(C(F)(F)F)cc1)c1ccccn1 [Example T-439],≤ 1 µM,≤ 1 µM,–
CC1CCc2c1c1cc(C(=O)N[C@@H](C)c3ccccn3)ccc1n(-c1ccc(C(F)(F)F)cc1)c2=O (stereo partly shown) [Example T-445],≤ 1 µM,≤ 1 µM,–
C[C@@H]1CCc2c1c(=O)n(-c1ccc(C(F)(F)F)cc1)c1ccc(C(=O)N[C@@H](C)c3ccccn3)cc21 [Example T-446],≤ 1 µM,≤ 1 µM,–
COC[C@@H](C)NC(=O)c1ccc2c(c1)c1cnccc1c(=O)n2-c1ccc(C(F)(F)F)cc1 [Example T-448],1 to 5 µM,1 to 5 µM,–
C[C@H](NC(=O)c1cnc2c(c1)c1cscc1c(=O)n2-c1ccc(C(F)(F)F)cc1)c1cccc(N)n1 [Example T-454],≤ 1 µM,≤ 1 µM,–
C[C@H](NC(=O)c1cnc2c(ccc(=O)n2-c2ccc(C(F)(F)F)cc2)c1)c1cccc(N)n1 [Example T-455],≤ 1 µM,≤ 1 µM,–
C[C@H](NC(=O)c1cnc2c(ccc(=O)n2-c2ccc(C(F)(F)F)cc2)c1)c1ccccn1 [Example T-456],≤ 1 µM,≤ 1 µM,–
Cc1cc(=O)n(-c2ccc(C(F)(F)F)cc2)c2ncc(C(=O)N[C@@H](C)c3cccc(N)n3)cc12 [Example T-457],≤ 1 µM,≤ 1 µM,–
Cc1cc(=O)n(-c2ccc(C(F)(F)F)cc2)c2ncc(C(=O)N[C@@H](C)c3ccccn3)cc12 [Example T-458],≤ 1 µM,≤ 1 µM,–
Cc1cc(=O)n(-c2ccc(C(F)(F)F)cc2)c2ncc(C(=O)N[C@@H](C)c3ccccc3)cc12 [Example T-459],≤ 1 µM,≤ 1 µM,–
Cc1cc2cc(C(=O)N[C@@H](C)c3ccccn3)cnc2n(-c2ccc(C(F)(F)F)cc2)c1=O [Example T-460],≤ 1 µM,≤ 1 µM,–
Cc1cc2cc(C(=O)N[C@@H](C)c3ccccc3)cnc2n(-c2ccc(C(F)(F)F)cc2)c1=O [Example T-462],≤ 1 µM,≤ 1 µM,–
